Assay results from ChEMBL document CHEMBL4041541, “Solvent free, catalyst free, microwave or grinding assisted synthesis of bis-cyclic imide derivatives and their evaluation for anticancer activity” (Bioorg Med Chem Lett, 2017).

Experiments:
HepG2 [1] = assay: Growth inhibition of human HepG2 cells at 1 x 10^-5 M after 24 hrs by MTT assay relative to control; type: functional; conditions: HepG2, 24 h, read-out: GI
T47D [2] = assay: Growth inhibition of human T47D cells at 1 x 10^-5 M after 24 hrs by MTT assay relative to control; type: functional; conditions: read-out: GI
PA-1 [3] = assay: Growth inhibition of human PA1 cells at 1 x 10^-5 M after 24 hrs by MTT assay relative to control; type: functional; conditions: PA-1, 24 h, read-out: GI
NCI-H522 [4] = assay: Growth inhibition of human NCI-H522 cells at 1 x 10^-5 M after 24 hrs by MTT assay relative to control; type: functional; conditions: NCI-H522, 24 h, read-out: GI
HCT-15 [5] = assay: Growth inhibition of human HCT15 cells at 1 x 10^-5 M after 24 hrs by MTT assay relative to control; type: functional; conditions: HCT-15, 24 h, read-out: GI
HEK-293T = assay: Growth inhibition of HEK293T cells after 24 hrs by MTT assay; type: cell-based; conditions: Homo sapiens
HCT-15 [6] = assay: Growth inhibition of human HCT15 cells after 24 hrs by MTT assay; type: functional, cell-based; conditions: HCT-15, 24 h
HepG2 [7] = assay: Growth inhibition of human HepG2 cells after 24 hrs by MTT assay; type: functional, cell-based; conditions: HepG2, 24 h
[8] = Selectivity index, ratio of IC50 for HEK293T cells to IC50 for human PA1 cells; type: functional
[9] = Selectivity index, ratio of IC50 for HEK293T cells to IC50 for human T47D cells; type: functional
T47D [10] = assay: Growth inhibition of human T47D cells after 24 hrs by MTT assay; type: functional, cell-based
[11] = Selectivity index, ratio of IC50 for HEK293T cells to IC50 for human HCT15 cells; type: functional
PA-1 [12] = assay: Growth inhibition of human PA1 cells after 24 hrs by MTT assay; type: functional, cell-based; conditions: PA-1, 24 h
NCI-H522 [13] = assay: Growth inhibition of human NCI-H522 cells after 24 hrs by MTT assay; type: functional, cell-based; conditions: NCI-H522, 24 h
[14] = Selectivity index, ratio of IC50 for HEK293T cells to IC50 for human HepG2 cells; type: functional
[15] = Selectivity index, ratio of IC50 for HEK293T cells to IC50 for human NCI-H522 cells; type: functional

SMILES | inhibition of growth at 10 µM (HepG2 [1]) | inhibition of growth at 10 µM (T47D [2]) | inhibition of growth at 10 µM (PA-1 [3]) | inhibition of growth at 10 µM (NCI-H522 [4]) | inhibition of growth at 10 µM (HCT-15 [5]) | IC50 (HEK-293T) | IC50 (HCT-15 [6]) | IC50 (HepG2 [7]) | Ratio IC50 [8] | Ratio IC50 [9] | IC50 (T47D [10]) | Ratio IC50 [11] | IC50 (PA-1 [12]) | IC50 (NCI-H522 [13]) | Ratio IC50 [14] | Ratio IC50 [15]
O=C1C2CCCCC2C(=O)N1CCCC1OCC2(CO1)COC(CCCN1C(=O)C3CCCCC3C1=O)OC2 (stereo not given) | 13% | 11% | 15% | 28% | 21% | – | – | – | – | – | – | – | – | – | – | –
CC(CN1C(=O)c2nc[nH]c2C1=O)N1C(=O)c2nc[nH]c2C1=O (stereo not given) | 36% | 32% | 20% | 3% | 30% | – | – | – | – | – | – | – | – | – | – | –
O=C1Cc2ccccc2C(=O)N1CCCN1CCN(CCCN2C(=O)Cc3ccccc3C2=O)CC1 | 7% | 5% | 0% | 6% | 1% | – | – | – | – | – | – | – | – | – | – | –
O=C1CNCC(=O)N1CCCN1C(=O)CNCC1=O | 35% | 31% | 19% | 30% | 2% | – | – | – | – | – | – | – | – | – | – | –
O=C1c2nccnc2C(=O)N1CCCN1C(=O)c2nccnc2C1=O | 1% | 13% | 16% | 0% | 5% | – | – | – | – | – | – | – | – | – | – | –
O=C1c2nc[nH]c2C(=O)N1CCN1C(=O)c2nc[nH]c2C1=O | 38% | 21% | 24% | 56% | 33% | 62.7 µM | 17.9 µM | 24.1 µM | 2.5 - 4.5 | 2.5 - 4.5 | 19.1 µM | 2.5 - 4.5 | 17.5 µM | 32.8 µM | 2.5 - 4.5 | 2.5 - 4.5
O=C1C2CCCCC2C(=O)N1CCCN1CCN(CCCN2C(=O)C3CCCCC3C2=O)CC1 (stereo not given) | 19% | 11% | 6% | 9% | 8% | – | – | – | – | – | – | – | – | – | – | –
CC(CN1C(=O)Cc2ccccc2C1=O)N1C(=O)Cc2ccccc2C1=O (stereo not given) | 21% | 26% | 3% | 16% | 11% | – | – | – | – | – | – | – | – | – | – | –
O=C1Cc2ccccc2C(=O)N1CCCC1OCC2(CO1)COC(CCCN1C(=O)Cc3ccccc3C1=O)OC2 (stereo not given) | 5% | 1% | 0% | 0% | 12% | – | – | – | – | – | – | – | – | – | – | –
O=C1CNCC(=O)N1CCCC1OCC2(CO1)COC(CCCN1C(=O)CNCC1=O)OC2 (stereo not given) | 37% | 31% | 12% | 25% | 21% | – | – | – | – | – | – | – | – | – | – | –
O=C1CNCC(=O)N1CCOCCOCCN1C(=O)CNCC1=O | 0% | 1% | 0% | 3% | 0% | – | – | – | – | – | – | – | – | – | – | –
O=C1C2CC=CCC2C(=O)N1CCCC1OCC2(CO1)COC(CCCN1C(=O)C3CC=CCC3C1=O)OC2 (stereo not given) | 25% | 39% | 7% | 19% | 11% | – | – | – | – | – | – | – | – | – | – | –
O=C1c2nccnc2C(=O)N1CCCN1CCN(CCCN2C(=O)c3nccnc3C2=O)CC1 | 20% | 15% | 18% | 19% | 10% | – | – | – | – | – | – | – | – | – | – | –
O=C1c2nc[nH]c2C(=O)N1CCOCCOCCN1C(=O)c2nc[nH]c2C1=O | 49% | 37% | 19% | 32% | 27% | – | – | – | – | – | – | – | – | – | – | –
O=C1C2CCCCC2C(=O)N1CCOCCOCCN1C(=O)C2CCCCC2C1=O (stereo not given) | 37% | 31% | 25% | 29% | 51% | > 100 µM | 23.8 µM | 27.5 µM | – | – | 15.9 µM | – | 19 µM | 32.4 µM | – | –
O=C1Cc2ccccc2C(=O)N1CCOCCOCCN1C(=O)Cc2ccccc2C1=O | 1% | 1% | 0% | 5% | 0% | – | – | – | – | – | – | – | – | – | – | –

SMILES | inhibition of growth at 10 µM (HepG2 [1]) | inhibition of growth at 10 µM (T47D [2]) | inhibition of growth at 10 µM (PA-1 [3]) | inhibition of growth at 10 µM (NCI-H522 [4]) | inhibition of growth at 10 µM (HCT-15 [5]) | IC50 (HEK-293T) | IC50 (HCT-15 [6]) | IC50 (HepG2 [7]) | Ratio IC50 [8] | Ratio IC50 [9] | IC50 (T47D [10]) | Ratio IC50 [11] | IC50 (PA-1 [12]) | IC50 (NCI-H522 [13]) | Ratio IC50 [14] | Ratio IC50 [15]
O=C1c2nccnc2C(=O)N1CCN1C(=O)c2nccnc2C1=O | 7% | 11% | 4% | 30% | 39% | – | – | – | – | – | – | – | – | – | – | –
CC(CN1C(=O)CNCC1=O)N1C(=O)CNCC1=O (stereo not given) | 22% | 20% | 3% | 16% | 12% | – | – | – | – | – | – | – | – | – | – | –
CC(CN1C(=O)c2nccnc2C1=O)N1C(=O)c2nccnc2C1=O (stereo not given) | 1% | 6% | 1% | 4% | 21% | – | – | – | – | – | – | – | – | – | – | –
O=C1Cc2ccccc2C(=O)N1CCN1C(=O)Cc2ccccc2C1=O | 4% | 8% | 9% | 16% | 6% | – | – | – | – | – | – | – | – | – | – | –
O=C1c2nc[nH]c2C(=O)N1CCCN1C(=O)c2nc[nH]c2C1=O | 34% | 35% | 17% | 10% | 21% | – | – | – | – | – | – | – | – | – | – | –
O=C1CNCC(=O)N1CCCN1CCN(CCCN2C(=O)CNCC2=O)CC1 | 21% | 24% | 29% | 19% | 14% | – | – | – | – | – | – | – | – | – | – | –
O=C1Cc2ccccc2C(=O)N1CCCN1C(=O)Cc2ccccc2C1=O | 5% | 11% | 15% | 1% | 7% | – | – | – | – | – | – | – | – | – | – | –
O=C1c2nccnc2C(=O)N1CCCC1OCC2(CO1)COC(CCCN1C(=O)c3nccnc3C1=O)OC2 (stereo not given) | 53% | 49% | 20% | 43% | 35% | 55.9 µM | 22.7 µM | 12.4 µM | 2.5 - 4.5 | 2.5 - 4.5 | 20.1 µM | 2.5 - 4.5 | 43.7 µM | 28.2 µM | 2.5 - 4.5 | 2.5 - 4.5
O=C1c2nc[nH]c2C(=O)N1CCCC1OCC2(CO1)COC(CCCN1C(=O)c3nc[nH]c3C1=O)OC2 (stereo not given) | 31% | 19% | 15% | 27% | 11% | – | – | – | – | – | – | – | – | – | – | –
O=C1c2nc[nH]c2C(=O)N1CCCN1CCN(CCCN2C(=O)c3nc[nH]c3C2=O)CC1 | 1% | 0% | 0% | 2% | 0% | – | – | – | – | – | – | – | – | – | – | –
O=C1CNCC(=O)N1CCN1C(=O)CNCC1=O | 15% | 38% | 20% | 30% | 30% | – | – | – | – | – | – | – | – | – | – | –
O=C1C2CC=CCC2C(=O)N1CCCN1CCN(CCCN2C(=O)C3CC=CCC3C2=O)CC1 (stereo not given) | 39% | 29% | 10% | 37% | 18% | – | – | – | – | – | – | – | – | – | – | –
O=C1c2nccnc2C(=O)N1CCOCCOCCN1C(=O)c2nccnc2C1=O | 6% | 39% | 38% | 35% | 47% | – | – | – | – | – | – | – | – | – | – | –
C[C@@H]1C[C@@H]([C@H](O)CC2CC(=O)NC(=O)C2)C(=O)[C@@H](C)C1 [CYCLOHEXIMIDE] | 21% | 23% | 33% | 18% | 21% | > 100 µM | 52.3 µM | 55.1 µM | – | – | – | – | – | 62.1 µM | – | –
O=P1(N(CCCl)CCCl)NCCCO1 (stereo not given) [CYCLOPHOSPHAMIDE ANHYDROUS] | 22% | 23% | 24% | 11% | 10% | > 100 µM | 76.3 µM | 52.3 µM | – | – | 69 µM | – | – | 69.9 µM | – | –
O=c1[nH]cc(F)c(=O)[nH]1 [FLUOROURACIL] | 17% | 24% | 7% | 27% | 12% | > 100 µM | – | 32.9 µM | – | – | – | – | – | 55.6 µM | – | –
